Experimental data taken from ChEMBL document CHEMBL1156812, “Novel synthesis of the hexahydroimidazo[1,5b]isoquinoline scaffold: application to the synthesis of glucocorticoid receptor modulators” (J Med Chem, 2010).
pEC50, pIC50, pKi: −log10 of the molar value.

Experiments:
[1] = molecular target: T1, Glucocorticoid receptor (Homo sapiens, UniProt P04150); assay: Transrepression activity at glucocorticoid receptor expressed in human A549 cells assessed as inhibition of IL-1-beta-induced NF-kappaB dependent E-selection promoter activation after 6 hrs by luciferase reporter gene based ELAM assay; type: cell-based
T1 sequence (P04150 whole entry): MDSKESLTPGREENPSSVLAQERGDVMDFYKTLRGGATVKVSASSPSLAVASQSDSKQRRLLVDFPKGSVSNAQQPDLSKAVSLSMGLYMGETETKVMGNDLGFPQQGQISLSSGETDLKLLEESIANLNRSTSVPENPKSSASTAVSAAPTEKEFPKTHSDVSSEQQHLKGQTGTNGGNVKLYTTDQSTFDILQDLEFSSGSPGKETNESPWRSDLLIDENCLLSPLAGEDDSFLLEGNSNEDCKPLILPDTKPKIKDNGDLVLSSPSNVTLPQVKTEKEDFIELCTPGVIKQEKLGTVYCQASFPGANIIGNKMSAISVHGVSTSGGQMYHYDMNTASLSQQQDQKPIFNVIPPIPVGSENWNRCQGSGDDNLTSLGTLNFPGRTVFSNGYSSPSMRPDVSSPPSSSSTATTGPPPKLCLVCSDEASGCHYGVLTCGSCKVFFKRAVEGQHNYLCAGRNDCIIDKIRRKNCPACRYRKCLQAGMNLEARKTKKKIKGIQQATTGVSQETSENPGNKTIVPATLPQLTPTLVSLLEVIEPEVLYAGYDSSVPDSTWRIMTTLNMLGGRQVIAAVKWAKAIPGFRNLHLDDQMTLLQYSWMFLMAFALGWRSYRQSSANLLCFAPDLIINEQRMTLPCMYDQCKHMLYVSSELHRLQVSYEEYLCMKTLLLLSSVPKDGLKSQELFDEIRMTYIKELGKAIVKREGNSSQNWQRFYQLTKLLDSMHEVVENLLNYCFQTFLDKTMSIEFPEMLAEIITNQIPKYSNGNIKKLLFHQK

[2] = molecular target: T1, Glucocorticoid receptor; assay: Displacement of GS-red from human glucocorticoid receptor by fluorescent polarization assay
[3] = molecular target: T2, Androgen receptor (Homo sapiens, UniProt P10275); assay: Binding affinity to androgen receptor
T2 sequence (P10275 whole entry): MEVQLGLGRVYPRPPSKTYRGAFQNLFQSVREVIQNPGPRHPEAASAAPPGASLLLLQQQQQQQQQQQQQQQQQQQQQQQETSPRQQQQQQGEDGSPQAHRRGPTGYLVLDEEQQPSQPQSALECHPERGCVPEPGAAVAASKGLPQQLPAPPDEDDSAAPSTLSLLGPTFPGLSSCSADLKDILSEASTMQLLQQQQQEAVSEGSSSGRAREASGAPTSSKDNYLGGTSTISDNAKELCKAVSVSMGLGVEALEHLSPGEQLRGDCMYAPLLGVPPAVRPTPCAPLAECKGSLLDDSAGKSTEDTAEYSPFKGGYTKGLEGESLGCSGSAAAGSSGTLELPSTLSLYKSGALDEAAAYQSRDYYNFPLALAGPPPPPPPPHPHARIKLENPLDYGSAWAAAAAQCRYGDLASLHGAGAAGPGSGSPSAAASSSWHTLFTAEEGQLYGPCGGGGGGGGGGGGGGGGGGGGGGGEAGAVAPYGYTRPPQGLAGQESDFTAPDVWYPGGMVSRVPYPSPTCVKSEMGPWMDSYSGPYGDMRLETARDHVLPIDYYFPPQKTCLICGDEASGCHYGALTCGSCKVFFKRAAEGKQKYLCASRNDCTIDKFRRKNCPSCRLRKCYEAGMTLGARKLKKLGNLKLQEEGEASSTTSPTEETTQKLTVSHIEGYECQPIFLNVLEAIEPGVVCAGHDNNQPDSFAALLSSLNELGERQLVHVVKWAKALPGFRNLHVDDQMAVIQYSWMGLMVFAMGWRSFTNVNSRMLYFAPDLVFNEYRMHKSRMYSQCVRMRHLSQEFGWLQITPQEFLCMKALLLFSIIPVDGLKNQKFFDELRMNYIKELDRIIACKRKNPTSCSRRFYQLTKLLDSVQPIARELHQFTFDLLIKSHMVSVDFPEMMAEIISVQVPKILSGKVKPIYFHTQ

[4] = molecular target: T1, Glucocorticoid receptor; assay: Transrepression activity at glucocorticoid receptor expressed in human A549 cells assessed as inhibition of PMA-induced AP1 activity after 6 hrs by luciferase reporter gene assay; type: cell-based
[5] = molecular target: T1, Glucocorticoid receptor; assay: Transactivation of GAL-4 tagged glucocorticoid receptor ligand binding domain expressed in human HeLa cells assessed as NP1 activation by luciferase reporter gene assay; type: cell-based
[6] = molecular target: T3, Progesterone receptor (Homo sapiens, UniProt P06401); assay: Binding affinity to progesterone receptor
T3 sequence (P06401 whole entry): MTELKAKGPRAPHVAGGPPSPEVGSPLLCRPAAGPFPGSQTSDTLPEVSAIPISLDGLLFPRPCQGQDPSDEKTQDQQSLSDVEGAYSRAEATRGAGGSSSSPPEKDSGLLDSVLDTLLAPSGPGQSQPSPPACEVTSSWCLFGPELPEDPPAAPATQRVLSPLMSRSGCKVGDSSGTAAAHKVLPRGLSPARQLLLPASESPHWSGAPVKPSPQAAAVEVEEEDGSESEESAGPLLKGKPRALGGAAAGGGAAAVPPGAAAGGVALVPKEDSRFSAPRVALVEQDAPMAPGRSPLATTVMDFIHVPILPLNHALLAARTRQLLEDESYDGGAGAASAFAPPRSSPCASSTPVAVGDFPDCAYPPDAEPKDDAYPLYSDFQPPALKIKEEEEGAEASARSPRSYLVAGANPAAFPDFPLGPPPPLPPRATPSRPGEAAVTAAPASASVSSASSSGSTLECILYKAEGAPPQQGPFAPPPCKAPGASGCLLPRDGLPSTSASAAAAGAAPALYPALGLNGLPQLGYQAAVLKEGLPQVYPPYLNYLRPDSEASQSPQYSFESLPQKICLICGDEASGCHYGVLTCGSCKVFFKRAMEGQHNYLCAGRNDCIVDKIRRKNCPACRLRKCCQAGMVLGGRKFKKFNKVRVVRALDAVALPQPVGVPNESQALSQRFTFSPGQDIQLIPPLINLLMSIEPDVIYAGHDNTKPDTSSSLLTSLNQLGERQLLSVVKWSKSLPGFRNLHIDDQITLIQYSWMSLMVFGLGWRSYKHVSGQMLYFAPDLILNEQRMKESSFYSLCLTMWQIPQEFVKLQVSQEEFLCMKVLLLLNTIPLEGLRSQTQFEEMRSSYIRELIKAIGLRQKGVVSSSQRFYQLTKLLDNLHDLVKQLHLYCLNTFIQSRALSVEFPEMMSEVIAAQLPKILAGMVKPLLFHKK

pEC50 [1]	pKi [2]	pIC50 [3]	pEC50 [4]	pEC50 [5]	pKi [6]	pEC50 ([1]; a549)	pEC50 ([4]; a549)	Structure (SMILES)
7.36	8.70	< 5.40	7.70					C[C@]12Cn3cnc(-c4ccc(F)cc4)c3C=C1CCC[C@@H]2[C@](C)(O)c1ccc(F)cc1
		< 5.40						C[C@]12Cn3cnc(-c4ccc(F)cc4)c3C=C1CCC[C@@H]2[C@](C)(O)CCc1ccccc1
		< 5.40						C[C@]12Cn3cnc(-c4ccc(F)cc4)c3C=C1CCC[C@@H]2[C@](C)(O)c1ccccn1
		< 5.40						C[C@]12Cn3cnc(-c4ccc(F)cc4)c3C=C1CCC[C@@H]2[C@](C)(O)c1ccncc1
		< 5.40						C[C@]12Cn3cnc(-c4ccc(F)cc4)c3C=C1CCC[C@@H]2[C@](C)(O)c1cccnc1
7.96	8.40	< 5.40	7.96	6.60	6.39			C[C@]12Cn3cnc(-c4ccc(F)cc4)c3C=C1CCC[C@@H]2[C@](C)(O)c1ccc(Cl)s1
7.00	8.60	< 5.40	8.02	5.95				Cc1cccc([C@@](C)(O)[C@H]2CCCC3=Cc4c(-c5ccc(F)cc5)ncn4C[C@@]32C)c1
7.51	8.70	< 5.40	7.60	6.04				Cc1ccccc1[C@@](C)(O)[C@H]1CCCC2=Cc3c(-c4ccc(F)cc4)ncn3C[C@@]21C
7.31	8.59	< 5.40	7.43	< 5.30				C[C@]12Cn3cnc(-c4ccc(F)cc4)c3C=C1CCC[C@@H]2[C@](C)(O)C1CC1
	8.05					< 5.30	< 5.60	C=CCC(O)C1CCCC2=Cc3c(-c4ccc(F)cc4)ncn3CC21C (single isomer, unassigned; diastereomer 2)
6.98	8.60	< 5.40	7.23	< 5.00				C[C@]12Cn3cnc(-c4ccc(F)cc4)c3C=C1CCC[C@@H]2[C@](C)(O)c1ccc(C#N)cc1
	8.74		8.74					C[C@]12Cc3cnn(-c4ccc(F)cc4)c3C=C1CCCC2[C@@H](O)c1csc2ccccc12 (stereo not given in full)
6.89	8.10	< 5.40	7.47	5.95				CCCC[C@@](C)(O)[C@H]1CCCC2=Cc3c(-c4ccc(F)cc4)ncn3C[C@@]21C
		< 5.40						C[C@]12Cn3cnc(-c4ccc(F)cc4)c3C=C1CCC[C@@H]2[C@](C)(O)C1CCOCC1
7.51	9.00	< 5.40	7.74	< 5.00				C[C@]12Cn3cnc(-c4ccc(F)cc4)c3C=C1CCC[C@@H]2[C@](C)(O)c1cccc(C#N)c1
< 5.30	8.10		< 5.60					C=CCC(O)C1CCCC2=Cc3c(-c4ccc(F)cc4)ncn3CC21C (single isomer, unassigned; diastereomer 1)
7.39	8.70	< 5.40	7.28		6.64			C[C@]12Cn3cnc(-c4ccc(F)cc4)c3C=C1CCC[C@@H]2[C@](C)(O)c1cccs1
	8.60	< 5.40						C[C@]12Cc3cnn(-c4ccc(F)cc4)c3C=C1CCC[C@@H]2[C@](C)(O)c1ccc(F)cc1
	8.28	< 5.40	7.51	< 5.00				C[C@]12Cn3cnc(-c4ccc(F)cc4)c3C=C1CCC[C@@H]2[C@](C)(O)C(F)(F)F
< 5.30	7.60		< 5.30					C[C@]12Cn3cnc(-c4ccc(F)cc4)c3C=C1CCC[C@@H]2[C@H](O)c1ccc(F)cc1 (stereo in doubt; 18)
6.61	7.68		6.57		6.35			C[C@]12Cn3cnc(-c4ccc(F)cc4)c3C=C1CCC[C@@H]2[C@H](O)c1ccc(F)cc1 (stereo in doubt; 19)
6.88	8.05	< 5.40	6.88	6.06				CC(C)C[C@@](C)(O)[C@H]1CCCC2=Cc3c(-c4ccc(F)cc4)ncn3C[C@@]21C
< 5.30	7.48	< 5.40	< 5.30					CO[C@](C)(c1cccs1)[C@H]1CCCC2=Cc3c(-c4ccc(F)cc4)ncn3C[C@@]21C

Structure (SMILES)	pEC50 [1]	pKi [2]	pIC50 [3]	pEC50 [4]	pEC50 [5]	pKi [6]	pEC50 ([1]; a549)	pEC50 ([4]; a549)
Cc1ccc([C@@](C)(O)[C@H]2CCCC3=Cc4c(-c5ccc(F)cc5)ncn4C[C@@]32C)s1	7.74	8.82	< 5.40	7.55	6.57			
C[C@]12Cn3cnc(-c4ccc(F)cc4)c3C=C1CCC[C@@H]2[C@](C)(O)c1ccsc1	7.43	9.00	< 5.40	8.30	< 5.00			
C[C@]12Cn3cnc(-c4ccc(F)cc4)c3C=C1CCC[C@@H]2[C@](C)(O)c1nccs1	7.04	8.52	< 5.40	6.96	6.24			
C=CC[C@H](O)C1CCCC2=Cc3c(cnn3-c3ccc(F)cc3)C[C@@]21C (stereo not given in full)		8.41	< 5.40	8.03				
C[C@]12Cn3cnc(-c4ccc(F)cc4)c3C=C1CCC[C@@H]2[C@](C)(O)Cc1ccc(F)cc1	6.92	7.96	< 5.40	6.64	6.12			
C[C@]12Cn3cnc(-c4ccc(F)cc4)c3C=C1CCC[C@@H]2[C@](C)(O)c1ccccc1	7.21	9.00	< 5.40	7.80	< 5.30			
C[C@]12Cc3cnn(-c4ccc(F)cc4)c3C=C1CCC[C@@H]2[C@](C)(O)c1ccsc1		9.10	< 5.40					
C[C@]12Cn3cnc(-c4ccc(F)cc4)c3C=C1CCC[C@@H]2[C@](C)(O)C1CCCCC1	7.48	8.51	< 5.40	8.70	6.33			
